Results published in patent US20260248824A1, “LIPID NANOPARTICLES” (SHIZUOKA PREFECTURAL UNIVERSITY CORPORATION, priority 2023, published 2026).

Tested on: Insulinoma INS-1 cells derived from rat pancreatic β cells
Experiment: Antiapoptotic effects on pancreatic β cells (cleaved caspase-3 western blotting, thapsigargin-induced)
Assay type: cell-based
Conditions: thapsigargin 300 nM, nobiletin concentration 20 μM, 14 hours, FIG. 20
Description: Insulinoma INS-1 cells derived from rat pancreatic β cells were seeded into a 6-well dish at 8×10^5 cells/well. […] After 14 hours of treatment, the cells were collected and subjected to SDS-PAGE, and protein expression in pancreatic β cells was analyzed by western blotting using a cleaved caspase-3 antibody as an indicator of apoptosis. Correction was made using the expression level of 3-actin as an internal standard.

How did the “Suppression of thapsigargin-induced increase in cleaved caspase 3 (antiapoptotic activity)” value turn out when COc1ccc(-c2cc(=O)c3c(OC)c(OC)c(OC)c(OC)c3o2)cc1OC [nobiletin alone, nobiletin] was run?
The value was “The effects were comparative with nobiletin alone”.
